Measured values as given in ChEMBL document CHEMBL1201862, “PubChem BioAssay data set” (2004).
Activity calls are given as the source filed them.

What was measured:
[1] = target: T1, Luciferin 4-monooxygenase (Photinus pyralis, UniProt P08659); assay: Counter Screen for Luciferase-based Assay Positives. [Related pubchem assays: 620, 618, 411 ]
HT-1080 = assay: cytotoxicity in HT1080 fibrosarcoma cells, cell-based, fluorescence readout (AID 620); assay type: functional; details: Homo sapiens
[2] = target: G-protein coupled receptor 55 (Homo sapiens, UniProt Q9Y2T6); assay: GPR55 antagonists blocking LPI-driven arrestin recruitment, primary screen, imaging, U2OS, beta-arrestin-GFP, LPI agonist (AID 2013); assay type: functional;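 note: antagonist potency measured as reduced agonist-driven arrestin aggregation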
[3] = Jurkat T cell cytotoxicity, dose response, cytotoxicity control for P. falciparum gametocyte viability project, luminescence (AID 1117277); assay type: functional, cell-based;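 note: potency reflects loss of cellular ATP meaning fewer viable cells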
[4] = P. falciparum late gametocyte killing, dose response, luminescence (AID 1117278); assay type: functional, cell-based;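 note: gametocytes exposed to compound for 24 hours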
Paired box protein Pax-8 = Paired box protein Pax-8 (Homo sapiens, UniProt Q06710); assay: inhibitors of PAX8-driven TPO luciferase reporter, dose response, RMG-I cells, cherry-pick (AID 687027); assay type: functional, cell-based;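 note: luciferase reporter driven by Pax8 target thyroperoxidase promoter measured by SteadyGlo luminescence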
[5] = non-specific cell cytotoxicity, dose response, cytotoxicity control for PAX8 inhibitor project, plate reader, dry powder samples (AID 743021); assay type: functional, cell-based
[6] = target: T2, Heat shock factor protein 1 (Mus musculus, UniProt P38532); assay: inhibition of MG132-induced HSE-luciferase signal, confirmation, cell-based, NIH3T3, luminescence, dose retest (AID 2382); assay type: functional;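 note: NIH3T3 fibroblasts with HSF1-driven luciferase reporter stressed by proteasome inhibitor MG132; luminescence from HSF1-driven luciferase expression after 8 hours of MG132 stress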
T2 sequence (P38532 whole entry): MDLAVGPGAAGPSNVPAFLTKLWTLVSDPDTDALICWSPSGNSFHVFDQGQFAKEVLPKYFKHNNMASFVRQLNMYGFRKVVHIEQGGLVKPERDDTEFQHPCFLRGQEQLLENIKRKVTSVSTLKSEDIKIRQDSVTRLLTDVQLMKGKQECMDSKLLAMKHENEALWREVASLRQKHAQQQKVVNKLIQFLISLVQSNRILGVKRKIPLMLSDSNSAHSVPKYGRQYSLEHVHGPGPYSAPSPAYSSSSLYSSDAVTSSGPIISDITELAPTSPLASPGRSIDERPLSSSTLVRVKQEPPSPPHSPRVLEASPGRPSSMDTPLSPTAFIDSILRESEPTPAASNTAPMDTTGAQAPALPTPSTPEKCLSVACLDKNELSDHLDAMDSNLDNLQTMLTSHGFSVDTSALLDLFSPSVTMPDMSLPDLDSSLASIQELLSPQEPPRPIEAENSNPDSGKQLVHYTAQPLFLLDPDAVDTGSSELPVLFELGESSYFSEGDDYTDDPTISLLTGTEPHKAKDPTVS

[7] = cytotoxicity in HEK-293T cells, dose response, cytotoxicity control for BCR NF-kB inhibitor project, luminescence, B-cell screen hits (AID 489021); assay type: functional, cell-based;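 note: HEK-293T cells carrying an NF-kB luciferase reporter; cells exposed to compound for about 14 hours before viability readout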
BJ [8] = assay: cytotoxicity toward Ras-transformed BJeLR fibroblasts, dose response, cell-based, alamar blue fluorescence, cherrypicked samples (AID 2631); assay type: functional; details: Homo sapiens;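 note: confirmatory dose-response assay in RAS-dependent BJ fibroblasts engineered with TERT, LT and ST, with cytotoxicity read by fluorescence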
BJ [9] = assay: cytotoxicity toward BJ-TERT-LT-ST fibroblasts, dose response, cell-based, RAS-independent, luminescence (AID 1935); assay type: functional; details: Homo sapiens;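 note: BJ fibroblasts immortalized with TERT plus LT and ST oncogenes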
BJ [10] = assay: cells; assay type: functional, cell-based; details: Homo sapiens
[11] = cytotoxicity toward DRD oncogenic fibroblasts, dose response, cell-based, non-viral oncogenic, luminescence (AID 1934); assay type: functional; details: Homo sapiens
BJ [12] = assay: cytotoxicity toward BJ-TERT fibroblasts, dose response, cell-based, RAS-independent, luminescence (AID 1933); assay type: functional; details: Homo sapiens
[13] = LGR2 antagonists, dose response, cell-based, HEK293, CRE-luciferase reporter, cherry pick, set 2 (AID 743343); assay type: functional;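 note: transfected cells were stimulated with diluted bursicon conditioned medium after compound addition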
[14] = MC4R antagonists, dose response, counter-screen for LGR2 antagonist project, cell-based, plate reader, cherry pick (AID 743444); assay type: functional;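 note: transfected HEK 293 cells stimulated with alpha-MSH peptide; potency of inhibitors of the alpha-MSH evoked signal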
[15] = target: T3, Acyl-homoserine lactone acylase PvdQ (Pseudomonas aeruginosa (strain LESB58), UniProt Q9I194); assay: P. aeruginosa PvdQ acylase inhibitors, dose response, biochemical, fluorescence, plate reader and imaging, cherry-picks (AID 493231)
T3 sequence (Q9I194 whole entry): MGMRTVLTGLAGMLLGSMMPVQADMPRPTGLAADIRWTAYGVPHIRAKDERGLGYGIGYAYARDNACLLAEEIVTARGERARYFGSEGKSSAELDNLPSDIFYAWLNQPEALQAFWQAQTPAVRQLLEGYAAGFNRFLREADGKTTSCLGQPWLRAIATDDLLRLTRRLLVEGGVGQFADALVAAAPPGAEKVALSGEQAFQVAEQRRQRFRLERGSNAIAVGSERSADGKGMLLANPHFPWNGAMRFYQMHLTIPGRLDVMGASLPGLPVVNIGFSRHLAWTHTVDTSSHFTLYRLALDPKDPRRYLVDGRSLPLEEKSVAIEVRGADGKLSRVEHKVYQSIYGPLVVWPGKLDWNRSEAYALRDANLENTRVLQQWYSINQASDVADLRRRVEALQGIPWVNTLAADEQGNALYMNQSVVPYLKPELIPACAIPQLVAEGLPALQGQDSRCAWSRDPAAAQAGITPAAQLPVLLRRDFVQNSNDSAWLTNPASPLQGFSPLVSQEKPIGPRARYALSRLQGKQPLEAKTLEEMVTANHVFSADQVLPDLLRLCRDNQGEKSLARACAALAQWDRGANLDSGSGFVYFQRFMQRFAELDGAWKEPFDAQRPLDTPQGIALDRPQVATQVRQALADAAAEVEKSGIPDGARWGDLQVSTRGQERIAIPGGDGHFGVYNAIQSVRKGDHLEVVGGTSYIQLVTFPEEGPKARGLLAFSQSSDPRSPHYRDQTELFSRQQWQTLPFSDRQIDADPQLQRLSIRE

Protein skinhead-1 = target: T4, Protein skinhead-1 (Caenorhabditis elegans, UniProt P34707); assay type: functional
T4 sequence (P34707 whole entry): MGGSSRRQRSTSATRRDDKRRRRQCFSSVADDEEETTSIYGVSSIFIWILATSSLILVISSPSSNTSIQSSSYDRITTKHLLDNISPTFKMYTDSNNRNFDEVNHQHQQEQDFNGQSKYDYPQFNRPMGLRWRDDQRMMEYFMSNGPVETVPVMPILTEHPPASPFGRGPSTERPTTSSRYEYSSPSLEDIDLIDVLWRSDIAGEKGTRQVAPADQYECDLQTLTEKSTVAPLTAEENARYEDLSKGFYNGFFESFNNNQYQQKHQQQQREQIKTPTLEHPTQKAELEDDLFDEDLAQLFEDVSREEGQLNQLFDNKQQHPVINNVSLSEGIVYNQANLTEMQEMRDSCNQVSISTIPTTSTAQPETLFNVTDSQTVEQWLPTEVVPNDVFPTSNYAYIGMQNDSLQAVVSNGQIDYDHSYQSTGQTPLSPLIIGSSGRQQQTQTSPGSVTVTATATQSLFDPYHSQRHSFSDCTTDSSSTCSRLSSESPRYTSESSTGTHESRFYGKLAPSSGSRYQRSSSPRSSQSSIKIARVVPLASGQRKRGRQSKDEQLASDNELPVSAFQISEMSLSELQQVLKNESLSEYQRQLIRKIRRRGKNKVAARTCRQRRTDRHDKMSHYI

[16] = A549 cell cytotoxicity, dose response, cytotoxicity control, plate reader, cherry-pick, antagonist series (AID 743412); assay type: functional, cell-based
[17] = target: FAD-linked sulfhydryl oxidase ALR (Homo sapiens, UniProt P55789); assay: inhibitors of human ALR sulfhydryl oxidase, dose response, biochemical, H2O2 detection, luminescence, cherry-pick (AID 493248)
[18] = target: DNA dC->dU-editing enzyme APOBEC-3G (Homo sapiens, UniProt Q9HC16); assay: Dose Response confirmation of small molecule APOBEC3G DNA Deaminase Inhibitors via a fluorescence-based single-stranded DNA deaminase assay. [Related pubchem assays (depositor defined):AID493012, AID493028]; assay type: functional
[19] = inhibitors of clade B AD8 Env fusion, dose response, cell-based, cherry-pick (AID 652062); assay type: functional;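 note: luciferase signal from cell-cell fusion driven by HIV-1 clade B AD8 Env; potency is for inhibitors of fusion seen as a drop in luminescence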
[20] = ZM109 Env clade C HIV-1 fusion inhibitors, dose response, HeLa effector, CEM target cells, luciferase, cherry-pick (AID 652058); assay type: functional, cell-based
[21] = off-target signal loss in HeLa-CEM21 co-culture – HeLa F-luc CTL cells, cherry-picked, counter-screen for HIV-1 Env fusion inhibitor project, dose response (AID 652040); assay type: functional, cell-based;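 note: potency for signal decrease marking cytotoxic or nonspecific inhibition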
Estrogen receptor = target: T5, Estrogen receptor (Homo sapiens, UniProt P03372);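 note: potency for inhibiting coactivator peptide recruitment to the receptor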
T5 sequence (P03372 whole entry): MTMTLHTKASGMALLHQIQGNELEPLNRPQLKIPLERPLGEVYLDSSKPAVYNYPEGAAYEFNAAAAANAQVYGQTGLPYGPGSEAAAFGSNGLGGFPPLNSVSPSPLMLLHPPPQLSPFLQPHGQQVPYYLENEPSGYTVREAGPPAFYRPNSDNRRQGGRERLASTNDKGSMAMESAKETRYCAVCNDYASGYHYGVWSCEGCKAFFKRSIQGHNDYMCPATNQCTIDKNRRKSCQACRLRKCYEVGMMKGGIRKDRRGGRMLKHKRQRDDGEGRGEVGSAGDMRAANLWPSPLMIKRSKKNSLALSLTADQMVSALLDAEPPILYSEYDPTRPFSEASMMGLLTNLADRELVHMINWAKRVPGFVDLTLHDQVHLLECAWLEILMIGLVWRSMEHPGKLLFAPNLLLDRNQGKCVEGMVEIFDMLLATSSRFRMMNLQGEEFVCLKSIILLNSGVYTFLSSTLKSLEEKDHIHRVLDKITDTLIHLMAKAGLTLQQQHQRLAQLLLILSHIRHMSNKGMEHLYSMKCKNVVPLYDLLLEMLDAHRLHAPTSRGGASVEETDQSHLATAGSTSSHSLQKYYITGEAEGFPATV

[22] = inhibitors of HIV Env-driven cell fusion, dose response, cherry-pick (AID 652057); assay type: functional, cell-based
[23] = target: T1, Luciferin 4-monooxygenase; assay: firefly luciferase enzyme inhibitors, dose response, biochemical, luminescence (AID 1891)
[24] = Luminescence Cell-Based Dose Confirmation HTS to Identify Inhibitors of Platelet Dense Granule Release. [Related pubchem assays: 1663 (Primary HTS), 1678 (Summary of Project)]; assay type: functional
[25] = target: Voltage-dependent T-type calcium channel subunit alpha-1H (Homo sapiens, UniProt O95180); assay type: functional;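 note: channel activity triggered by adding a high calcium stimulation buffer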
[26] = HepG2 cell cytotoxicity, dose response, cytotoxicity control, cherry-picked samples (AID 1159577); assay type: functional, cell-based
[27] = P. falciparum Dd2 growth inhibitors, dose response, SYBR Green, cherry-picked samples (AID 1159567); assay type: functional, cell-based

T1 sequence (P08659 whole entry): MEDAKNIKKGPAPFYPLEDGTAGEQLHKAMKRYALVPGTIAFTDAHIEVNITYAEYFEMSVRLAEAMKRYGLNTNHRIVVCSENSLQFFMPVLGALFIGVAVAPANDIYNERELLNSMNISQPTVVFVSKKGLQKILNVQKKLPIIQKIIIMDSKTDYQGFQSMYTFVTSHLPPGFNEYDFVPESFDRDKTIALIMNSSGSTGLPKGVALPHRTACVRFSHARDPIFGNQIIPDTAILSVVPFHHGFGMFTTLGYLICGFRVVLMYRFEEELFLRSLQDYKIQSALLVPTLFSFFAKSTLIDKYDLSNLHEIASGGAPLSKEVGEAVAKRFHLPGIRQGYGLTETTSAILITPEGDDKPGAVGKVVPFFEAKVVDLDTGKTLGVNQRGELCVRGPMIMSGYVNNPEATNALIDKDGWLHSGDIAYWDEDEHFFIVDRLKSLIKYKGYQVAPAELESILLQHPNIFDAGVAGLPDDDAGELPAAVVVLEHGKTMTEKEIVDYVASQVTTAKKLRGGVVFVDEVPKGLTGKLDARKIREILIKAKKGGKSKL
Chain of Paired box protein Pax-8 (Q06710 whole entry): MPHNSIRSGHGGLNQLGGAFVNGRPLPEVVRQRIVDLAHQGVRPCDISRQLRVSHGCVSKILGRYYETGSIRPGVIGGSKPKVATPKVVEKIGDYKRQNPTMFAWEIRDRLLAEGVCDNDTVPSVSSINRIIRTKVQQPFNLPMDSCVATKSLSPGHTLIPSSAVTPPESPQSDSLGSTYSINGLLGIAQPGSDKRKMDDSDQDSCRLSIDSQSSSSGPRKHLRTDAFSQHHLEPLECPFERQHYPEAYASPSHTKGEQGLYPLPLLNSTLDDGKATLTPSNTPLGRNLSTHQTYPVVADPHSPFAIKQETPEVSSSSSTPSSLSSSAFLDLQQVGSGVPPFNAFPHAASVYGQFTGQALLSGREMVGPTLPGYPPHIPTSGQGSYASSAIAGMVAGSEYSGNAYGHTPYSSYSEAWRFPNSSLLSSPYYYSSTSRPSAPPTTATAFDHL
Chain of G-protein coupled receptor 55 (Q9Y2T6 whole entry): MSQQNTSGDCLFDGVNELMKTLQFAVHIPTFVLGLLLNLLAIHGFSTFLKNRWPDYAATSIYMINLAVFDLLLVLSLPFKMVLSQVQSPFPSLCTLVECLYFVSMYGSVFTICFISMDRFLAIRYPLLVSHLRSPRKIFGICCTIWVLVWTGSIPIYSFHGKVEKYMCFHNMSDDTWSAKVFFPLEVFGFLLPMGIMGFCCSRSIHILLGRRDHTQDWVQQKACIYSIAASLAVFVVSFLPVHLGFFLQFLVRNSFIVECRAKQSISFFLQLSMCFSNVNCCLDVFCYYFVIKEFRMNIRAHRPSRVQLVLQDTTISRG
Chain of FAD-linked sulfhydryl oxidase ALR (P55789 whole entry): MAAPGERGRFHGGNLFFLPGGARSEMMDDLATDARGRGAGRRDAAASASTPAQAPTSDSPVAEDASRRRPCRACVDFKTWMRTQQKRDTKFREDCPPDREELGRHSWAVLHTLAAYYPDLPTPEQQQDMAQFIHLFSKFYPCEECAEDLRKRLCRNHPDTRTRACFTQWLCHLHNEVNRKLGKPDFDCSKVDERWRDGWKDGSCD
Chain of Voltage-dependent T-type calcium channel subunit alpha-1H (O95180 whole entry): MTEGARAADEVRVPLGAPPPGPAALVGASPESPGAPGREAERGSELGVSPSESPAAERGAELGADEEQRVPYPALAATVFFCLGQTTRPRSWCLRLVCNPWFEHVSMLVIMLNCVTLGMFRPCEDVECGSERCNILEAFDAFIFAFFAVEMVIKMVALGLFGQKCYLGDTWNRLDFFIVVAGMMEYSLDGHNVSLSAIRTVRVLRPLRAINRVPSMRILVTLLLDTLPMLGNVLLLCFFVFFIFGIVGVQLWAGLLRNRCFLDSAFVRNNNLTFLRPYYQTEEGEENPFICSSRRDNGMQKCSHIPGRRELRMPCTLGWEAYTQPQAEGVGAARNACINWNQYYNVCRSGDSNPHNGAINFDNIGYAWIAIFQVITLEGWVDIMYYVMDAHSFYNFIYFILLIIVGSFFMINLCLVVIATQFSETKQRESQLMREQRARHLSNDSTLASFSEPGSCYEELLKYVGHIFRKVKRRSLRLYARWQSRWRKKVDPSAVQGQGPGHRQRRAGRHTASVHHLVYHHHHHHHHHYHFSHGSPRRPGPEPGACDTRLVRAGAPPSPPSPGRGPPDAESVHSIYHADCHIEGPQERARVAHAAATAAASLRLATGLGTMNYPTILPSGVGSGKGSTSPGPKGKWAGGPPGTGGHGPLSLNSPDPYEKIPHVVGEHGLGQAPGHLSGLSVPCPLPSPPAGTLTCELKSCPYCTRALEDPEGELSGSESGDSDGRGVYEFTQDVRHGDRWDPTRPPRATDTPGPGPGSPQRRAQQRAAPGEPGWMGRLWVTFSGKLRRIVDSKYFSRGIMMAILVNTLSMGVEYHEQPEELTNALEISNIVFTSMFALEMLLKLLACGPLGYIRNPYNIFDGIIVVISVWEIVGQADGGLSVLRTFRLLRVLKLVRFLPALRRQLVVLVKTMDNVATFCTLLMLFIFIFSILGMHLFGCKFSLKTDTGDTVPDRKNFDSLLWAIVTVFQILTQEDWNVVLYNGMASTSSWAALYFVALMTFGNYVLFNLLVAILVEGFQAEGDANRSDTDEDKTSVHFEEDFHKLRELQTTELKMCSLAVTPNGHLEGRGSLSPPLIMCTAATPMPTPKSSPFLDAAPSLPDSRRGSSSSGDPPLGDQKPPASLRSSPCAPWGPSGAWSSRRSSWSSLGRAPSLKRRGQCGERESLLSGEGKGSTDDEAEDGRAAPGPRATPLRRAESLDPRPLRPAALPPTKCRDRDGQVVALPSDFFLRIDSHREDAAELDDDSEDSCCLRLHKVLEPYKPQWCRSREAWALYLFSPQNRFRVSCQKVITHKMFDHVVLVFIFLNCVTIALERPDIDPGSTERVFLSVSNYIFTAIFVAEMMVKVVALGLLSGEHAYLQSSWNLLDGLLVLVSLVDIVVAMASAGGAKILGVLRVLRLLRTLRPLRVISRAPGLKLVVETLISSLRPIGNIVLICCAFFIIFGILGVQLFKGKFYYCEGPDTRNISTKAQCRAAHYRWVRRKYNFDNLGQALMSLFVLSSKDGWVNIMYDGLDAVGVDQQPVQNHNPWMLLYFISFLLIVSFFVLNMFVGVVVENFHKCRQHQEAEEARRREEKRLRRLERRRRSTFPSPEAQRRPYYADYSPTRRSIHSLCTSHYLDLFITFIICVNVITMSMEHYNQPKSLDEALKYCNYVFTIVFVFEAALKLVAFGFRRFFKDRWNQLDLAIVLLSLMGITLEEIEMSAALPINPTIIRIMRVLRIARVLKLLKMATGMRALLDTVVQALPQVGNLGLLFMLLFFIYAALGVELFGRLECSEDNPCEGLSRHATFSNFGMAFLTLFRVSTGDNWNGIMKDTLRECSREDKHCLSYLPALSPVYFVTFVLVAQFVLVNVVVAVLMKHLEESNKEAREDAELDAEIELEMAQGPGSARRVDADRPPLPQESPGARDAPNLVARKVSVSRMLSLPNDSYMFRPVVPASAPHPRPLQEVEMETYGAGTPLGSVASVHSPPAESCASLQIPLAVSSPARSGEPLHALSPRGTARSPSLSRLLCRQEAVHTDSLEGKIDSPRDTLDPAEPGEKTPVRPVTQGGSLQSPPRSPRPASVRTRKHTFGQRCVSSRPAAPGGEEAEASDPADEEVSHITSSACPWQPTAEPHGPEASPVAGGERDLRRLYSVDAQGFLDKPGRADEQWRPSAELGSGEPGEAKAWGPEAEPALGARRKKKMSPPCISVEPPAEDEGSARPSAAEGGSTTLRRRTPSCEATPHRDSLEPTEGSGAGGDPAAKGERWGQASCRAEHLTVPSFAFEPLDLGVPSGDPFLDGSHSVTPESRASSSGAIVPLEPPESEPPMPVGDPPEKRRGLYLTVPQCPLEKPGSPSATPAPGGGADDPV
Chain of DNA dC->dU-editing enzyme APOBEC-3G (Q9HC16 whole entry, the tested form may be a part): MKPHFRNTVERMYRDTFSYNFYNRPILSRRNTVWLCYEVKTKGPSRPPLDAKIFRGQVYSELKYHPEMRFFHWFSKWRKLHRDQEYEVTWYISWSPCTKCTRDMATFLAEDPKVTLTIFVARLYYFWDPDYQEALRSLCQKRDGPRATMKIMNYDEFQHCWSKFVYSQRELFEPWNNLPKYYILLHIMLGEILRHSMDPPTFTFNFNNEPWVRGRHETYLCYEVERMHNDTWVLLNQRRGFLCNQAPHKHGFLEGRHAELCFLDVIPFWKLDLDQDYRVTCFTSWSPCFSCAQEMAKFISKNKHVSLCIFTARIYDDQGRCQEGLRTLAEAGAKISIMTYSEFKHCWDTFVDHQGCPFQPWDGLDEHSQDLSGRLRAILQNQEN

Cc1cc(N)n2nc(-c3ccccc3)cc2n1
EC50 [1]: 1.04 µM (active)
EC50 (HT-1080): > 50 µM (not active)

Cn1c(=O)n(C/C=C/c2ccccc2)c(=O)c2c1nc1n2CCCN1c1ccc(F)cc1
IC50 [2]: 0.624 µM (active)

Cc1cccc(NC(=O)c2csnn2)n1
IC50 [3]: > 83.3 µM (inactive)
IC50 [4]: > 109 µM (inactive)

COC(=O)[C@@H]1Cc2c([nH]c3ccccc23)C(C)(C)N1C(=O)CCl
AC50 (Paired box protein Pax-8): 1.26 µM (active)
AC50 [5]: 3.27 µM (active)
EC50 [6]: 4.08 µM (active)
IC50 [7]: > 80 µM (inactive)
EC50 (BJ [8]): 18.1 µM (active)
EC50 (BJ [9]): > 75 µM (inconclusive)
EC50 (BJ [10]): 3.16 µM (inconclusive)
EC50 [11]: 2.65 µM (inconclusive)
EC50 (BJ [12]): 2.4 µM (inconclusive)

CCOc1ccc(-c2cnc3ccccc3n2)cc1
AC50 [13]: 1.77 µM (active)
AC50 [14]: 1.8 µM (active)
EC50 [6]: 10 µM (active)
AC50 [15]: 97.4 µM (active)
IC50 (Protein skinhead-1): > 100 µM (inactive)
AC50 [16]: 30.8 µM (active)

Sc1nnc(-c2ccccn2)n1/N=C/c1cccc2ccccc12
AC50 [17]: 10.8 µM (active)
IC50 [18]: 2.35 µM (active)

COc1ccc(C(=O)NCC(=O)N2CCc3ccccc3C2)cc1
IC50 [3]: > 83.3 µM (inactive)
IC50 [4]: > 109 µM (inactive)

Cc1ccc(C(C(=O)NC(C)(C)C)N(Cc2cccs2)C(=O)c2csnn2)cc1 (stereo not given)
AC50 [19]: 1.67 µM (active)
AC50 [20]: 17.5 µM (active)
AC50 [21]: 22.6 µM (active)
IC50 (Estrogen receptor): > 50 µM (not active)
AC50 [22]: 10.2 µM (active)

O=C(Nc1ccccn1)c1cc2ccccc2o1
EC50 [1]: 0.22 µM (active)
EC50 [23]: 3.03 µM (active)
EC50 [24]: 3.9 µM (active)
EC50 (HT-1080): > 50 µM (not active)
EC50 (BJ [9]): > 150 µM (inconclusive)
EC50 (BJ [10]): 16.1 µM (active)
EC50 [11]: 11.2 µM (active)
EC50 (BJ [12]): 11.2 µM (active)

CCCC(C)NC(=O)c1ccc2[nH]c3c(c2c1)CC(C)CC3 (stereo not given)
EC50 [25]: 60.1 µM (active)

N#Cc1ccc(-c2ccc([C@@H]3[C@@H]4CN(C(=O)Nc5ccc(C(F)(F)F)cc5)C[C@H]3N4)cc2)cc1
AC50 [26]: 20.5 µM (active)
AC50 [27]: 5.94 µM (active)
